The record followed here is article PMC4601023, “Novel anticancer agent, SQAP, binds to focal adhesion kinase and modulates its activity” (Scientific Reports, 2015).

Common to all, as to format: cell-based, human
Assay [1] relates to paxillin phosphorylation at Y118 in A549. As to the kind of experiment: Paxillin phosphorylation in A549, Western blotting. The settings on record: A549, 21 h treatment, 10 µM. The method, then: Fibronectin is a glycoprotein located in the extracellular matrix that binds to integrins. […] A549 lung cancer cells have been used before for studying cell migration because of their metastatic model potential. A549 cells are also one of the tumor cell lines sensitive to SQMG[9]. Therefore, we studied the phosphorylation of FAK in A549 cells (Fig. 5C,D). SQAP could inhibit the phosphorylation of FAK at Y397 and Y925 after 1 h treatment in a dose dependent manner. […] We also examined paxillin and Akt phosphorylation in A549 as downstream targets of FAK. […] We hypothesize that SQAP diminish on Akt phosphorylation being more readily in A549 cancer cells than in HUVEC endothelial cells might be due to a higher Akt basal activity on cancer cells.
Cells were harvested and solubilized in RIPA buffer (20 mM Tris-HCl, pH 7.5, 1% Sodium deoxycholate, 150 mM NaCl, 5 mM EDTA, 1% Triton X-100, 0.1% SDS, 0.1%, 1 mM PMSF, 1 mM vanadate and 1 μg/mL leupeptin). Protein quantification was determined using the DC protein assay kit (Bio-Rad, Hercules, CA, USA). A total of 15 μg of each protein sample were separated by SDS–PAGE gels and blotted onto polyvinylidene difluoride membranes (Merck, Kenilworth, NJ, US). […]
On the technique in general: A western blot detects proteins with antibodies after separation by electrophoresis.

Assay [2] relates to FAK phosphorylation (Y397, Y925) in HUVEC cells. As to the kind of experiment: FAK phosphorylation level in HUVEC, Western blotting. The method, then: HUVEC cells were incubated for 20 h in serum-free medium in 60 mm dishes. SQAP, SQMG or SQP was added and incubated for 30 min followed by addition of 50 ng/mL VEGF (RD systems, Minneapolis, MN. USA) and incubation for another 30 min. FAK phosphorylation level was analyzed by Western blotting as described in the next section.
Cells were harvested and solubilized in RIPA buffer (20 mM Tris-HCl, pH 7.5, 1% Sodium deoxycholate, 150 mM NaCl, 5 mM EDTA, 1% Triton X-100, 0.1% SDS, 0.1%, 1 mM PMSF, 1 mM vanadate and 1 μg/mL leupeptin). Protein quantification was determined using the DC protein assay kit (Bio-Rad, Hercules, CA, USA). A total of 15 μg of each protein sample were separated by SDS–PAGE gels and blotted onto polyvinylidene difluoride membranes (Merck, Kenilworth, NJ, US). After blocking for 1 h with Blocking-One (Nacalai Tesque, Kyoto, Japan), proteins were detected by incubating the membranes with the primary antibody at 4 °C overnight (anti-Y397 2:2000, anti-Y925 5:2000 and anti-FAK 0.5:2000) followed by incubation with horseradish peroxidase-conjugated secondary antibodies at room temperature for 1 h (anti-mouse 0.5:2000 and anti-rabbit 0.4:2000).

Assay [3] deals with VEGF mRNA expression in HUVEC cells. As to the kind of experiment: VEGF mRNA expression, quantitative real-time RT-PCR, HUVEC. The settings on record: 6 h SQAP treatment. The method, then:
Figure 5 Effect of SQAP on FAK phosphorylation. The level of FAK phosphorylated at Y397 and Y925 was evaluated by Western blotting. (A) HUVEC cells were serum-depleted for 20 h before treatment with SQAP or vehicle for 30 min followed by treatment with or without VEGF (50 ng/mL) for 30 min. (B) HUVEC cells were cultured as stated in section A and then treated with SQAP, SQMG or SQP. (C) A549 cells were serum-deprived for 48 h before pretreatment with SQAP or vehicle followed by treatment with or without fibronectin (10 μg/mL) for 30 min. (D) A549 cells were cultured as stated in section C and then treated with SQAP, SQMG or SQP. (E–F) HUVEC and A549 cells were treated with SQAP for 6 h before adding an RNA stabilization reagent and prepared for Quantitative real-time RT-PCR.
Total RNA was prepared using an RNeasy Mini Kit (QIAGEN Inc., Hilden, Germany) according to the manufacturer’s instructions and then reverse-transcribed to cDNA with Transcriptor First Strand cDNA Synthesis Kit (Roche Applied Science, Mnnheim, Germany). Measurement of gene expression by quantitative analysis was performed using the LightCycler system (Roche Applied Science). Quantitative real-time RT-PCR analysis of β-actin, TSP-1 and VEGF-A expression were performed using the LightCycler FastStart DNA MasterPLUS SYBR Green I system (Roche Applied Science). […]

Consider `CCCCCCCCCCCCCCCCCC(=O)OCCCO[C@H]1O[C@H](CS(=O)(=O)O)[C@@H](O)[C@H](O)[C@H]1O` [SQAP, sulfoquynovosylacylpropanediol], for which the “paxillin phosphorylation at Y118” value in assay [1] is “inhibition of paxillin phosphorylation at Y118 took 21 h treatment”. Further, the “phosphorylation level of FAK at Y397 and at Y925 after VEGF stimulation” value in assay [2] (VEGF 50 ng/mL, 1 h) is on record as “appreciably reduced”. For the same molecule, the “phosphorylation of FAK in the absence of VEGF” value in assay [2] (no VEGF, within 1 h) is on record as “inhibited”. For the same molecule, in assay [3], the “VEGF production level (mRNA, RT-PCR)” value is reported as “reduced”.
